# Where a name gives a salt, the structure may show the parent alone.
smiles,measurement,value
N=C(N)c1ccc(OCCCn2ccn(CCCSc3ccc(C(=N)N)cc3)c2=N)cc1 (as salt: hydrochloride) [compound 173],melting point,168 to 171 °C
N=C(N)c1ccc(OCCCn2ccn(CCCc3cc4cc(C(=N)N)ccc4o3)c2=N)cc1 (as salt: hydrochloride) [compound 126],melting point,227 to 236 °C
N=C(N)c1ccc(SCCCn2ccn(CCCSc3ccc(C(=N)N)cc3)c2=N)cc1 (as salt: hydrochloride) [compound 181],melting point,169 to 172 °C
N=C(NCCCOCc1ccc(C(=N)N)cc1)NCCCOc1ccc(C(=N)N)cc1 (as salt: trifluoroacetate) [compound 143],melting point,192 to 197 °C
"N=C(N)c1ccc(OCCCCn2ccn(CCCCOc3ccc(C(=N)N)cc3)c2=N)cc1 (as salt: hydrochloride) [compound 36, 4-[4-[3-[4-(4-carbamimidoylphenoxy)butyl]-2-imino-imidazol-1-yl]butoxy]benzamidine]",melting point,178 to 180 °C
Cc1cn(CCCOc2ccc(C(=N)N)cc2)c(=N)n1CCCOc1ccc(C(=N)N)cc1 (as salt: hydrochloride) [compound 114],melting point,182 to 186 °C
N=C(N)c1ccc(OCCCn2ccn(CCCOc3ccc(C(=N)N)cc3Cl)c2=N)c(Cl)c1 (as salt: hydrochloride) [compound 99],melting point,184 to 190 °C
Cc1c(C)n(CCCOc2ccc(C(=N)N)cc2)c(=N)n1CCCOc1ccc(C(=N)N)cc1 (as salt: hydrochloride) [compound 109],melting point,188 to 199 °C
N=C(NCC/C=C/c1ccc(C(=N)N)cc1)NCC/C=C/c1ccc(C(=N)N)cc1 (as salt: hydrochloride) [compound 151],melting point,179 to 181 °C
N=C(NCCCc1cc2cc(C(=N)N)ccc2o1)NCCCc1cc2cc(C(=N)N)ccc2o1 (as salt: hydrochloride) [compound 80],melting point,174 to 182 °C
